Marks after values point to notes of the source that are not given here.
What was measured:
MCF-7p xenografts [1] = test: Aggressive MCF-7p estrogen-sensitive breast cancer xenograft, combination with paclitaxel; format: in vivo, mice
Protocol: (§1) Experimental Design. Aggressively growing, estrogen-sensitive MCF 7 breast cancer cells (hereafter referred to as MCF-7p) were passaged in vivo prior to use to generate a more aggressive cell line. Tumors were excised from donor mice, passed through a sterile mesh, and suspended in 0.9% sodium chloride, and 20 mg of this suspension was mixed 1:1 with Matrigel™. These tumor fragments were implanted subcutaneously into female athymic nude mice bearing estrogen pellets (0.72 mg/pellet) that had been inserted 2 days previously. After 28 days, when the tumors had become established and grown to a substantial size (i.e., the mean tumor size had reached ˜430 mm^3), mice were divided into 4 groups, and treatment was administered as shown in Table 30.
Tumor size was measured by calipers at periodic intervals during the study. After tumors in a given group had reached an average size of ˜1500 mm^3, the mice in that group were sacrificed; after 72 days of treatment, any remaining groups were taken off study.

HT1080 cells = test: Cell cycle analysis by propidium iodide flow cytometry in HT1080 cells (% cells in S-phase); format: cell-based, human; details: for % Cells In S-Phase: HT1080 cells, 100 nM, 18 hours, normoxic, DMSO control 17.3
Protocol: Experimental Design. […] After treatment, cells were trypsinized, and stained with propidium iodide (PI) dye to measure DNA content of individual cells by flow cytometry. Output comprised histograms showing relative DNA content in 10,000 cells.
While compounds which cause greater than 20% of the cells to accumulate in S-phase at 100 nM are considered active, a larger percentage of cells may be accumulated in S-phase at lower doses depending on the Compound, as shown in FIG. 12 for example.

[2] = test system: aromatase-overexpressing MCF-7 xenografts; test: Aromatase-overexpressing MCF-7 breast cancer xenograft, combination with letrozole; format: in vivo, mice; details: for Mean % Inhibition of Tumor Size vs Vehicle at Day 42 / Proportion Cured: aromatase-overexpressing MCF-7 xenografts, nude mice
Protocol: Experimental Design. Aromatase-overexpressing, estrogen-sensitive MCF-7 cells (7.0×10^6 cells/mouse) were implanted subcutaneously in ovariectomized female athymic nude mice. Androstenedione pellets (6 mg/pellet) were implanted 1 day prior to cell implantation.
Tumor size was measured by calipers at periodic intervals during the study. When the individual tumor size in a mouse exceeded 1500 mm^3, or after 98 days of treatment, that mouse was sacrificed.

[3] = test system: hypoxia-inducible endogenous VEGF expression; test: Hypoxia-inducible endogenous VEGF expression ELISA in HeLa cells, dose-response (EC50, Table 3); details: Homo sapiens, read-out: ELISA EC50 μM
MCF-7p xenografts [4] = test: Aggressive MCF-7p estrogen-sensitive breast cancer xenograft, combination with tamoxifen; format: in vivo, mice
Protocol: as §1, with “Aggressively” for “Experimental Design. Aggressively”, “˜435” for “˜430”, “34.” for “30.”
Tumor size was measured by calipers at periodic intervals during the study. When the mean tumor size in a group had reached 1500 mm^3, or after 72 days of treatment, the mice in the group were sacrificed.

MCF-7 xenografts = test: MCF-7 estrogen-sensitive breast cancer xenograft, combination with tamoxifen; format: in vivo, mice
Protocol: Experimental Design. […] Estrogen pellets (0.72 mg/pellet) were implanted in the mice 9 days prior to cell implantation.
Tumor size was measured by calipers at periodic intervals during the study. After 42 days of treatment, the mice were sacrificed.

[5] = Paclitaxel alone, 10 mg/kg IV Days 2, 5, 9, 12, 15, nude mice
[6] = Letrozole (high-dose), 30 μg/mouse Oral QD
[7] = Letrozole (low-dose), 10 μg/mouse Oral QD
[8] = Tamoxifen alone, 8 mg/kg Oral QD, nude mice
[9] = 42 days of treatment, combination = Compound #10 with tamoxifen
[10] = Tamoxifen alone, 10 mg/kg QD, nude mice

Structure (SMILES) | EC50 [3] [µM] | further results
CC(=O)O[C@H]1C(=O)[C@@]2(C)[C@H]([C@H](OC(=O)c3ccccc3)[C@]3(O)C[C@H](OC(=O)[C@H](O)[C@@H](NC(=O)c4ccccc4)c4ccccc4)C(C)=C1C3(C)C)[C@]1(OC(C)=O)CO[C@@H]1C[C@@H]2O [Paclitaxel, paclitaxel] |  | tumor growth (MCF-7p xenografts [1]): transient cytoreduction and a tumor growth delay; Mean % Inhibition of Tumor Size vs Vehicle at Day 26 (MCF-7p xenografts [1]; [5]): 78* %; Median Time to Tumor Size ≧1000 mm^3 (MCF-7p xenografts [1]; [5]): 47 days
O=C(Oc1ccc(Cl)cc1)N1CCc2c([nH]c3ccc(Cl)cc23)C1c1ccc(OCCN2CCCCC2)cc1 (stereo not shown) |  | % Cells In S-Phase (HT1080 cells): 16.8%
N#Cc1ccc(C(c2ccc(C#N)cc2)n2cncn2)cc1 [letrozole] |  | Mean % Inhibition of Tumor Size vs Vehicle at Day 42 [2, 6]: 79%; Proportion Cured [2, 6]: 20%; Mean % Inhibition of Tumor Size vs Vehicle at Day 42 [2, 7]: 72%; Proportion Cured [2, 7]: 10%; tumor growth ([2]; high-dose letrozole): tumor regression was observed; tumor growth ([2]; low-dose letrozole): tumor growth was prevented but tumor reduction was not observed
O=C(Oc1ccc(Cl)cc1)N1CCc2c([nH]c3ccc(Cl)cc23)C1c1ccc(OCCN2CCOCC2)cc1 (stereo not shown) [drawing 535] |  | % Cells In S-Phase (HT1080 cells): 16.4%
NC(Cn1ccc(=O)c(O)c1)C(=O)O (stereo not shown) [mimosine, reference compound] |  | delay or prolongation of the cell cycle (HT1080 cells; same tumor cells, data not shown): does not delay or prolong the cell cycle or reduce VEGF production
O=C(Oc1ccc(F)cc1)N1CCc2c([nH]c3ccc(Cl)cc23)C1c1ccc(OCCCCCCN2CCCC2)cc1 (stereo not shown) [Compound 773] | < 0.008 | 
CN(C)CCN(C)CCCOc1ccc([C@H]2c3[nH]c4ccc(Cl)cc4c3CCN2C(=O)Oc2ccc(Cl)cc2)cc1 [Compound 1611] | < 0.008 | 
CC(=O)N1CCN(CCCOc2ccc(C3c4[nH]c5ccc(Cl)cc5c4CCN3C(=O)Oc3ccc(Cl)cc3)cc2)CC1 (stereo not shown) [Compound 903] | < 0.008 | 
O=C(Oc1ccc(Cl)cc1)N1CCc2c([nH]c3ccc(Cl)cc23)C1c1ccc(OCCCCN2CCCC2)cc1 (stereo not shown) [Compound 698] | 0.008 to 0.04 | 
COCCN(CCOC)CC(O)COc1ccc(C2c3[nH]c4ccc(Cl)cc4c3CCN2C(=O)Oc2ccc(Cl)cc2)cc1 (stereo not shown) [Compound 918] | < 0.008 | 
COCCN(C)CC(O)COc1ccc(C2c3[nH]c4ccc(Cl)cc4c3CCN2C(=O)Oc2ccc(F)cc2)cc1 (stereo not shown) [Compound 936] | < 0.008 | 
CN(C)CCCOc1ccc(C2c3[nH]c4ccc(Cl)cc4c3CCN2C(=O)Oc2ccc(Br)cc2)cc1 (stereo not shown) [Compound 468] | 0.008 to 0.04 | 
O=C(Oc1ccc(Cl)cc1)N1CCc2c([nH]c3ccc(Cl)cc23)C1c1ccc(OCCCN2CCN(CCO)CC2)cc1 (stereo not shown) [Compound 942] | 0.008 to 0.04 | 
CC(C)NCCCOc1ccc(C2c3[nH]c4ccc(Cl)cc4c3CCN2C(=O)Oc2ccc(Cl)cc2)cc1 (stereo not shown) [Compound 953] | 0.008 to 0.04 | 
O=C1NC2CSC(CCCCC(=O)OCCOc3ccc(C4c5[nH]c6ccc(Cl)cc6c5CCN4C(=O)Oc4ccc(Cl)cc4)cc3)C2N1 (stereo not shown) [Compound 544] | < 0.008 | 
O=C(Oc1ccc(F)cc1)N1CCc2c([nH]c3ccc(Cl)cc23)C1c1ccc(OCCCCN2CCOCC2)cc1 (stereo not shown) [Compound 738] | < 0.008 | 
O=C(Oc1ccc(Cl)cc1)N1CCc2c([nH]c3ccc(Cl)cc23)C1c1ccc(OCC(O)CN2CCOCC2)cc1 (stereo not shown) [Compound 904] | < 0.008 | 
O=C(Oc1ccc(F)cc1)N1CCc2c([nH]c3ccc(Cl)cc23)C1c1ccc(OCCCCCCN2CCOCC2)cc1 (stereo not shown) [Compound 776] | < 0.008 | 
CC/C(=C(\c1ccccc1)c1ccc(OCCN(C)C)cc1)c1ccccc1 [Tamoxifen, tamoxifen] |  | tumor growth (MCF-7p xenografts [4]): only modestly delayed tumor growth; Mean % Inhibition of Tumor Size vs Vehicle at Day 26 (MCF-7p xenografts [4]; [8]): 33* %; Median Time to Tumor Size ≧1000 mm^3 (MCF-7p xenografts [4]; [8]): 24 days; mice cured (%) (MCF-7 xenografts; [9]): 70%; mice cured (number) (MCF-7 xenografts; [9]): 7 of the 10; Mean % Inhibition of Tumor Size vs Vehicle at Day 42 (MCF-7 xenografts; [10]): 84%; Proportion Cured (MCF-7 xenografts; [10]): 70%; tumor regression and growth delay (MCF-7 xenografts; combination = Compound #10 with tamoxifen): tumor regression and growth delay were observed
COCCN(CCOC)CC(O)COc1ccc(C2c3[nH]c4ccc(Cl)cc4c3CCN2C(=O)Oc2ccc(F)cc2)cc1 (stereo not shown) [Compound 913] | < 0.008 | 
O=C(Oc1ccc(Cl)cc1)N1CCc2c([nH]c3ccc(Cl)cc23)C1c1ccc(OCCCN2CCCC2)cc1 (stereo not shown) [Compound 429] | < 0.008 | 

Structure (SMILES) | EC50 [3] [µM] | further results
COCCN(C)CC(O)COc1ccc(C2c3[nH]c4ccc(Cl)cc4c3CCN2C(=O)Oc2ccc(Cl)cc2)cc1 (stereo not shown) [Compound 964] | 0.008 to 0.04 | 
COCCN(CCCOc1ccc(C2c3[nH]c4ccc(Cl)cc4c3CCN2C(=O)Oc2ccc(F)cc2)cc1)CCOC (stereo not shown) [Compound 990] | < 0.008 | 
CN1CCN(CCCOc2ccc(C3c4[nH]c5ccc(Cl)cc5c4CCN3C(=O)Oc3ccc(Cl)cc3)cc2)CC1 (stereo not shown) [Compound 961] | 0.008 to 0.04 | 
COCCCNCCCCOc1ccc(C2c3[nH]c4ccc(Cl)cc4c3CCN2C(=O)Oc2ccc(Cl)cc2)cc1 (stereo not shown) [Compound 701] | 0.008 to 0.04 | 
O=C(Oc1ccc(Cl)cc1)N1CCc2c([nH]c3ccc(Cl)cc23)C1c1ccc(OCCCCCCNCCO)cc1 (stereo not shown) [Compound 782] | < 0.008 | 
CN1CCCC(COc2ccc(C3c4[nH]c5ccc(Cl)cc5c4CCN3C(=O)Oc3ccccc3Cl)cc2)C1 (stereo not shown) [Compound 976] | 0.04 to 0.2 | 
O=C(Oc1ccc(Cl)cc1)N1CCc2c([nH]c3ccc(Cl)cc23)C1c1ccc(OCC(O)CN2CCN(CCO)CC2)cc1 (stereo not shown) [Compound 960] | 0.008 to 0.04 | 
CN1CCN(CC(O)COc2ccc(C3c4[nH]c5ccc(Cl)cc5c4CCN3C(=O)Oc3ccc(Cl)cc3)cc2)CC1 (stereo not shown) [Compound 970] | 0.008 to 0.04 | 
O=C(Oc1ccc(F)cc1)N1CCc2c([nH]c3ccc(Cl)cc23)C1c1ccc(OCCCCN2CCCCC2)cc1 (stereo not shown) [Compound 739] | < 0.008 | 
CN1CCN(CCCCOc2ccc(C3c4[nH]c5ccc(Cl)cc5c4CCN3C(=O)Oc3ccc(F)cc3)cc2)CC1 (stereo not shown) [Compound 740] | 0.04 to 0.2 | 
CN1CCCC(COc2ccc(C3c4[nH]c5ccc(Cl)cc5c4CCN3C(=O)Oc3ccc(F)cc3)cc2)C1 (stereo not shown) [Compound 932] | < 0.008 | 
CC(=O)N1CCN(CC(O)COc2ccc(C3c4[nH]c5ccc(Cl)cc5c4CCN3C(=O)Oc3ccc(F)cc3)cc2)CC1 (stereo not shown) [Compound 637] | < 0.008 | 
O=C(Oc1ccc(F)cc1)N1CCc2c([nH]c3ccc(Cl)cc23)C1c1ccc(OCCCCNCCO)cc1 (stereo not shown) [Compound 735] | < 0.008 | 
COc1ccc(OC(=O)N2CCc3c([nH]c4ccc(Cl)cc34)C2c2ccc(OCC3CCCN(C)C3)cc2)cc1 (stereo not shown) [Compound 981] | 0.04 to 0.2 | 
CN1CCN(CC(O)COc2ccc(C3c4[nH]c5ccc(Cl)cc5c4CCN3C(=O)Oc3ccc(F)cc3)cc2)CC1 (stereo not shown) [Compound 963] | 0.008 to 0.04 | 
O=C(CN1CCOCC1)Nc1ccc(C2c3[nH]c4ccc(Cl)cc4c3CCN2C(=O)Oc2ccc(Cl)cc2)cc1 (stereo not shown) [Compound 454] | 0.008 to 0.04 | 
O=C(Oc1ccc(Cl)cc1)N1CCc2c([nH]c3ccc(Cl)cc23)C1c1ccc(OCCCCNCCO)cc1 (stereo not shown) [Compound 699] | 0.008 to 0.04 | 
CN(C)CCCOc1ccc(C2c3[nH]c4ccc(Cl)cc4c3CCN2C(=O)Oc2ccccc2)cc1 (stereo not shown) [Compound 493] | 0.04 to 0.2 | 
CC(C)NCC(O)COc1ccc(C2c3[nH]c4ccc(Cl)cc4c3CCN2C(=O)Oc2ccc(Cl)cc2)cc1 (stereo not shown) [Compound 977] | 0.04 to 0.2 | 
O=C(Oc1ccc(Cl)cc1)N1CCc2c([nH]c3ccc(Cl)cc23)C1c1ccc(OCC(O)CN2CCSCC2)cc1 (stereo not shown) [Compound 923] | < 0.008 | 
